Reference: patent US20100189648A1, “INHIBITORS FOR DISRUPTING THE INTERACTION OF UBIQUITINATION RELATED ENZYMES AND USES THEREOF” (priority 2006, published 2010)
In brackets after ≈: the same amount, converted by molar mass. Where two headings read alike, the source gives them in different places.

What was measured:
Format in all cases: cell-based, human
Hela cells = assay: MTT survival assay, cervical cancer line (Hela cells); conditions: for IC50: Homo sapiens
Protocol: (§1) The effect of the above identified compounds on anti-tumor activity in human carcinoma cells was determined by the MTT survival assay. The MTT assay is a commonly used method in evaluation of cell survival, based on the ability of viable cells to convert MTT (MTT, Sigma, Cat No. 044K5307), a soluble tetrazolium salt [3-(4,5-dimethylthuazole-2-yl)-2,5 diphenyl tetrazolium bromide], into an insoluble formazan precipitate, which is quantitated by spectrophotometry following solubilization in dimethyl sulfoxide (DMSO).
(§2) In brief, different carcinoma cells were treated with negative control, various test articles at different concentration, and positive control (DDP), in 96-well tissue culture dishes. Each test article at different concentration is repeated 3 times.
(§3) Different carcinoma cells were diluted with 10% FBS and RPM1640 or MEM media to a concentration of 3-5×10^4 per ml suspension. 100 microliter of cells were incubated in each well in 96-well tissue culture dishes at 37 C. The cells were incubated at 37 C on the first day. On the second day, media supernatant was removed and replaced with media and different concentration of test articles (100 microliter in each well). Three Negative control wells and three positive control (DDP) wells were also included. The 96-well plate were incubated at 37 C for another 68 hours. After 68 hours, supernatant of each well was removed. 100 microliter of 1 mg/ml MTT diluted in PBS was injected into each well. The cells were incubated at 37 C for another 4 hours. The cells were then solubilized in 150 microliter DMSO, mixed for 10 minutes and absorbance readings were taken using Microplate reader Bio-Rad Model 550 at 570 nm. IR (cell growth inhibition rate) % was calculated as (OD570 of negative control-OD570 with test article)/OD570 of negative control. IC50 (cell 50% inhibition concentration) at 95% confidence level was calculated with Bliss method.

MCF-7 = assay: MTT survival assay, breast cancer cell line (MCF-7); conditions: for IC50: Homo sapiens
Protocol: as §1, §2, §3

A459 = assay: MTT survival assay, lung cancer cell line (A459); conditions: A459; for IC50: Homo sapiens
Protocol: as §1, §2, §3

SMMC-7721 = assay: MTT survival assay, liver cancer cell line (SMMC-7721); conditions: SMMC-7721; for IC50: Homo sapiens
Protocol: as §1, §2, §3

SKOV3 = assay: MTT survival assay, ovarian cancer cell line (SKOV3); conditions: SKOV3 (first table)
Protocol: as §1, §2, §3

U251 = assay: MTT survival assay, glioma cell line (brain tumor U251); conditions: U251 (first table)
Protocol: as §1, §2, §3

[1] = 95% confidence limits of IC50, read-out: IC50 (95% confidence level), interval
[2] = Bliss method, unit not printed (concentrations in μg/ml), read-out: IC50 (95% confidence level)

O=C(Nc1ccnc2[nH]ccc12)c1cc2ccccc2s1 [Mol 11]
IR (%) (Hela cells; 0.41 μg/ml): 0.7%
OD(A570 nm) (Hela cells; 0.41 μg/ml): 0.738 ± 0.080
OD(A570 nm) (Hela cells; 1.23 μg/ml): 0.790 ± 0.037
IR (%) (Hela cells; 3.70 μg/ml): 2.6%
OD(A570 nm) (Hela cells; 3.70 μg/ml): 0.723 ± 0.032
IR (%) (Hela cells; 11.11 μg/ml): 12.0%
OD(A570 nm) (Hela cells; 11.11 μg/ml): 0.653 ± 0.134
IR (%) (Hela cells; 33.33 μg/ml): 61.9%
OD(A570 nm) (Hela cells; 33.33 μg/ml): 0.283 ± 0.047
IR (%) (Hela cells; 100 μg/ml): 80.5%
OD(A570 nm) (Hela cells; 100 μg/ml): 0.145 ± 0.031
IC50 (Hela cells; [1]): 26.8 to 38.3 µg/mL (≈ 91.3 to 131 µM)
IC50 (Hela cells; [2]): 31.9 µg/mL (≈ 109 µM)
IR (%) (MCF-7; 3.125 μg/ml): 0%
OD(A570 nm) (MCF-7; 3.125 μg/ml): 0.903 ± 0.194
IR (%) (MCF-7; 6.25 μg/ml): 21.2%
OD(A570 nm) (MCF-7; 6.25 μg/ml): 0.711 ± 0.045
IR (%) (MCF-7; 12.5 μg/ml): 16.6%
OD(A570 nm) (MCF-7; 12.5 μg/ml): 0.752 ± 0.164
IR (%) (MCF-7; 25 μg/ml): 21.9%
OD(A570 nm) (MCF-7; 25 μg/ml): 0.705 ± 0.076
IR (%) (MCF-7; 50 μg/ml): 45.7%
OD(A570 nm) (MCF-7; 50 μg/ml): 0.490 ± 0.093
IR (%) (MCF-7; 100 μg/ml): 47.0%
OD(A570 nm) (MCF-7; 100 μg/ml): 0.478 ± 0.079
IC50 (MCF-7; MCF7, 95% confidence limits of IC50, read-out: IC50 (95% confidence level), interval): 66.9 to 154 µg/mL (≈ 228 to 526 µM)
IC50 (MCF-7; MCF7, Bliss method, unit not printed (concentrations in μg/ml), read-out: IC50 (95% confidence level)): 94.2 µg/mL (≈ 321 µM)
IR (%) (A459; 3.125 μg/ml): 8.6%
OD(A570 nm) (A459; 3.125 μg/ml): 0.583 ± 0.015
IR (%) (A459; 6.25 μg/ml): 26.1%
OD(A570 nm) (A459; 6.25 μg/ml): 0.471 ± 0.001
IR (%) (A459; 12.5 μg/ml): 31.2%
OD(A570 nm) (A459; 12.5 μg/ml): 0.438 ± 0.051
IR (%) (A459; 25 μg/ml): 64.0%
OD(A570 nm) (A459; 25 μg/ml): 0.230 ± 0.040
IR (%) (A459; 50 μg/ml): 76.1%
OD(A570 nm) (A459; 50 μg/ml): 0.152 ± 0.017
IR (%) (A459; 100 μg/ml): 83.1%
OD(A570 nm) (A459; 100 μg/ml): 0.108 ± 0.013
IC50 (A459; [1]): 19.1 to 19.8 µg/mL (≈ 65.2 to 67.4 µM)
IC50 (A459; [2]): 19.4 µg/mL (≈ 66.3 µM)
IC50 (SMMC-7721; [1]): 14.3 to 15.5 µg/mL (≈ 48.9 to 53 µM)
IC50 (SMMC-7721; [2]): 14.9 µg/mL (≈ 50.9 µM)
IR (%) (SMMC-7721; 3.125 μg/ml): 37.0%
OD(A570 nm) (SMMC-7721; 3.125 μg/ml): 0.277 ± 0.018
IR (%) (SMMC-7721; 6.25 μg/ml): 35.1%
OD(A570 nm) (SMMC-7721; 6.25 μg/ml): 0.286 ± 0.092
IR (%) (SMMC-7721; 12.5 μg/ml): 53.1%
OD(A570 nm) (SMMC-7721; 12.5 μg/ml): 0.207 ± 0.007
IR (%) (SMMC-7721; 25 μg/ml): 53.5%
OD(A570 nm) (SMMC-7721; 25 μg/ml): 0.205 ± 0.018
IR (%) (SMMC-7721; 50 μg/ml): 63.0%
OD(A570 nm) (SMMC-7721; 50 μg/ml): 0.163 ± 0.009
IR (%) (SMMC-7721; 100 μg/ml): 68.1%
OD(A570 nm) (SMMC-7721; 100 μg/ml): 0.141 ± 0.006
IC50 (SKOV3; Homo sapiens, SK-OV-3, Bliss method, unit not printed (concentrations in μg/ml), read-out: IC50 (95% confidence level)): 29 µg/mL (≈ 98.9 µM)
IR (%) (SKOV3; 3.125 μg/ml): 0%
OD(A570 nm) (SKOV3; 3.125 μg/ml): 0.753 ± 0.074
IR (%) (SKOV3; 6.25 μg/ml): 0.9%
OD(A570 nm) (SKOV3; 6.25 μg/ml): 0.694 ± 0.043
IR (%) (SKOV3; 12.5 μg/ml): 4.1%
OD(A570 nm) (SKOV3; 12.5 μg/ml): 0.671 ± 0.063
IR (%) (SKOV3; 25 μg/ml): 45.0%
OD(A570 nm) (SKOV3; 25 μg/ml): 0.385 ± 0.017
IR (%) (SKOV3; 50 μg/ml): 55.1%
OD(A570 nm) (SKOV3; 50 μg/ml): 0.314 ± 0.041
IR (%) (SKOV3; 100 μg/ml): 86.0%
OD(A570 nm) (SKOV3; 100 μg/ml): 0.098 ± 0.010
IC50 (U251; Homo sapiens, U-251, Bliss method, unit not printed (concentrations in μg/ml), read-out: IC50 (95% confidence level)): 4340 µg/mL (≈ 14800 µM)
IR (%) (U251; 3.125 μg/ml): 9.1%
OD(A570 nm) (U251; 3.125 μg/ml): 0.797 ± 0.016
IR (%) (U251; 6.25 μg/ml): 13.5%
OD(A570 nm) (U251; 6.25 μg/ml): 0.758 ± 0.019
IR (%) (U251; 12.5 μg/ml): 15.1%
OD(A570 nm) (U251; 12.5 μg/ml): 0.744 ± 0.045
IR (%) (U251; 25 μg/ml): 20.5%
OD(A570 nm) (U251; 25 μg/ml): 0.697 ± 0.053
IR (%) (U251; 50 μg/ml): 19.1%
OD(A570 nm) (U251; 50 μg/ml): 0.709 ± 0.054
IR (%) (U251; 100 μg/ml): 25.8%
OD(A570 nm) (U251; 100 μg/ml): 0.650 ± 0.006
